Test results as given in patent US5075298A, “Cephalosporins” (Roussel Uclaf, priority 1987, dated 1991).
Where a name gives a salt, the structure may show the parent alone.

Legend:
Assay in all cases: In vitro activity, dilution method in a liquid medium (MIC)
Type in all cases: cell-based
[1] = test system: Pseudomonas aeruginosa 1771 m; details: 24 H
Method: (§1) In vitro activity, dilution method in a liquid medium.
(§2) A series of tubes were prepared in which an equal quantity of sterile nutritive medium was distributed. Increasing quantities of the product under test were distributed into each tube and then each tube was seeded with a bacterial strain. After incubation for 24 or 48 hours in an incubator at 37° C., the inhibition of the growth was estimated by transillumination, which enabled the minimal inhibiting concentrations (M.I.C.), expressed in micrograms/ml to be determined.

[2] = test system: Staphylococcus aureus 285; details: 24 H
Method: as §1, §2

[3] = test system: Streptococcus pyogenes A 561; details: A561, 24 H
Method: as §1, §2

[4] = test system: Proteus vulgaris (indol) A 232; details: 24 H
Method: as §1, §2

Escherichia Coli 1507 E = details: COLI1507E, 24 H
Method: as §1, §2

[5] = test system: Saimonella typhimurium MZ 11; details: 24 H
Method: as §1, §2

[6] = test system: Staphylococcus aureus Exp. n° 54 146; details: 24 H
Method: as §1, §2

Serratia RG 2 532 = details: RG2532, 24 H
Method: as §1, §2

[7] = test system: Kiebsiella aerogenes 1 522 E; details: 24 H
Method: as §1, §2

Escherichia Coli UC 1894 = details: UC1894, 24 H
Method: as §1, §2

[8] = test system: Enterobacter cloacae 1 321 E; details: 1321E, 24 H
Method: as §1, §2

Escherichia Coli DC 2 = details: COLIDC2, 24 H
Method: as §1, §2

Escherichia Coli O 75 = details: COLIO75, 24 H
Method: as §1, §2

[9] = test system: Streptococcus pyogenes 77 A; details: 24 H
Method: as §1, §2

Escherichia Coli T E M = details: 24 H
Method: as §1, §2

Providencia Du 48 = details: DU48, 24 H
Method: as §1, §2

Escherichia Coli DC 0 = details: COLIDC0, 24 H
Method: as §1, §2

[10] = test system: Proteus mirabilis (indol-) A 235; details: 24 H
Method: as §1, §2

[11] = test system: Kiebsiella pneumoniae Exp. 52 145; details: 24 H
Method: as §1, §2

Row | Structure (SMILES) | MIC [1] | MIC [2] | MIC [3] | MIC [4] | MIC (Escherichia Coli 1507 E) | MIC [5] | MIC [6] | MIC (Serratia RG 2 532) | MIC [7] | MIC (Escherichia Coli UC 1894) | MIC [8] | MIC (Escherichia Coli DC 2) | MIC (Escherichia Coli O 75) | MIC [9] | MIC (Escherichia Coli T E M) | MIC (Providencia Du 48) | MIC (Escherichia Coli DC 0) | MIC [10] | MIC [11]
1 | CO/N=C(\C(=O)N[C@@H]1C(=O)N2C(C(=O)O)=C(/C=C/C[n+]3cccc4ccsc43)CS[C@H]12)c1csc(N)n1 [ex. 1] | 0.6 µg/mL | 0.15 µg/mL | ≤ 0.01 µg/mL | 0.3 µg/mL | 0.01 µg/mL | 0.04 µg/mL | 0.3 µg/mL | 0.15 µg/mL | 0.15 µg/mL | ≤ 0.01 µg/mL | 0.04 µg/mL | 0.01 µg/mL | 0.02 µg/mL | ≤ 0.01 µg/mL | 0.04 µg/mL | 0.3 µg/mL | 0.04 µg/mL | 0.04 µg/mL | 0.08 µg/mL
2 | CO/N=C(\C(=O)N[C@@H]1C(=O)N2C(C(=O)[O-])=C(/C=C/C[n+]3cccc4ccsc43)CS[C@H]12)c1csc(N)n1 [ex. 3, (6R,7R)-7-[[(2-amino-4-thiazolyl)-[(Z)[methoxyimino]]-acetamido]-8-oxo-3-[(E)-3-[7-[thieno[2,3-b]pyridinio]-1-propenyl]-5-thia-1-azabicyclo[4,2,0]oct-2-en-2-carboxylate (internal salt)] | 2.5 µg/mL | 2.5 µg/mL | ≤ 0.01 µg/mL | 0.2 µg/mL | 0.04 µg/mL | 0.3 µg/mL | 2.5 µg/mL | 5 µg/mL | 0.6 µg/mL | 0.08 µg/mL | 0.6 µg/mL | 0.08 µg/mL | 0.3 µg/mL | ≤ 0.01 µg/mL | 0.6 µg/mL | 1.2 µg/mL | 1.2 µg/mL | 0.04 µg/mL | 1.2 µg/mL
3 | Nc1nc(/C(=N/OC(F)F)C(=O)N[C@@H]2C(=O)N3C(C(=O)[O-])=C(/C=C/C[n+]4cccc5ccsc54)CS[C@H]23)cs1 [ex. 2, (6R,7R)-7-[[(2-amino-4-thiazolyl) [(Z)]-[(difluoromethoxy)imino]]acetamido]-8-oxo-3 [(E) 3-[7-[thieno[2,3-b]pyridino]-1-propenyl]-5-thia-1-azabicyclo[4,2,0]oct-2-en-2-carboxylate (internal salt)] | 1.2 µg/mL | 5 µg/mL | ≤ 0.01 µg/mL | 0.3 µg/mL | 0.15 µg/mL | 0.3 µg/mL | 5 µg/mL | 10 µg/mL | 0.6 µg/mL | 0.04 µg/mL | 0.3 µg/mL | 0.6 µg/mL | 1.2 µg/mL | ≤ 0.01 µg/mL | 0.6 µg/mL | 2.5 µg/mL | 2.5 µg/mL | 0.08 µg/mL | 0.6 µg/mL
